# Measured values published in patent US8535650B2, “Stabilized reverse micelle compositions and uses thereof” (Soligenix, Inc., priority 2001, dated 2013).
# Tests used:
# in vivo [1] = details: Sprague-Dawley, rat
# Description: Sprague-Dawley rats (approximately weighing 120 grams each) were catheterized surgically with jugular and duodenal catheters. Each group of rats, 4-5 animals per group, were given 0.4-3.6 mg/kg of leuprolide either as free in solution or incorporated in micelles. As further control, several groups of animals were given a solution of free leuprolide subcutaneously. Blood samples were collected at 0, 20, 40, 60, 90, 120, and 240 minutes following administration of leuprolide or controls. The time 0 blood collection was obtained approximately 15 minutes before administration of leuprolide formulations. The amount of leuprolide released into rat serum or leuprolide in formulation was determined by using competitive enzyme-linked immunosorbent assay (ELISA) (Peninsula Laboratories, Inc). The assay system utilizes goat anti-rabbit IgG for solid phase (microwells) immobilization. The test serum or formulation sample was allowed to react simultaneously with the coated antibody, rabbit anti-leuprolide and biotinylated leuprolide. The biotinylated leuprolide competes for the antibody binding sites with standard or the unknown sample leuprolide. After a two-hour (or overnight) incubation at room temperature, unbound biotinylated peptide was removed by washing, and streptavidin-conjugated horseradish peroxidase (SA-HRP) was added and allowed to bind the immobilized rabbit anti-leuprolide/biotinylated leuprolide complex. After washing away excess SA-HRP, 3,3′,5,5′-Tetramethylbenzidine (TMB) was added and incubated for 15 minutes, resulting in the development of a blue color. The addition of Stop Solution stops the reaction and converts the color to yellow. The intensity of the yellow color depends on the quantity of biotinylated leuprolide bound to the immobilized antibody: When more sample leuprolide competes for the limited antibody, less biotinylated leuprolide/SA-HRP can be immobilized, and less color is produced by the substrate.
# in vivo [2] = details: both, beagle, dog, sc, 0.4 mg/kg
# Description: Beagle dogs (3 female and 3 male weighing 8-10 kg each) were catheterized surgically with duodenal catheters. For each treatment, the dogs were given 0.4-2.4 mg/kg of leuprolide either in solution or incorporated in micelles. The treatments were administered via the duodenal catheter. For the positive control, the dogs were given a solution of free leuprolide by subcutaneous injection. Blood samples were collected from cephalic catheters or the jugular vein at 0, 15, 30, 45, 60, 90, 120, 240, 360, 480, and 1440 minutes following administration of leuprolide or controls. […] The time 0 blood collection was obtained approximately 10 minutes before administration of leuprolide formulations. The amount of leuprolide released into dog serum was determined by using a competitive enzyme-linked immunosorbent assay (ELISA) from Peninsula Laboratories, Inc. which utilizes goat anti-rabbit IgG for solid phase (microwell) immobilization. The test serum was allowed to react simultaneously with the coated antibody, rabbit anti-leuprolide and biotinylated leuprolide. After two-hour incubation at room temperature, unbound biotinylated peptide was removed by washing, and streptavidin-conjugated horseradish peroxidase (SA-HRP) was added and allowed to bind the immobilized rabbit anti-leuprolide/biotinylated leuprolide complex. After washing away excess SA-HRP, 3,3′5,5′-Tetramethylbenzidine dihydrochloride (B) was added and incubated for 15 minutes, resulting in the development of a blue color. The addition of stop solution stops the reaction and converts the color to yellow. Leuprolide in the samples was quantified by non-linear regression analysis of the standard curve and sample optical density values. Pharmacokinetic parameters are calculated using a pharmacokinetic software with a noncompartmental model.
# [3] = Bioavailability of hGH following intraduodenal administration in rats (plasma hGH by ELISA); type: in vivo, Sprague-Dawley rats; details: 600 micrograms hGH, FIG. 1
# Description: Each group of rats, 3-5 animals per group, received 600 micrograms of human growth hormone in Acconon CC-12 reverse micelle formulation or control formulations consisting of aqueous growth hormone or Acconon CC-12 water reverse micelle. Blood samples were obtained from the jugular catheter at the indicated times after administration. Plasma samples were obtained from the collected blood specimens and analyzed for the presence of hGH by an enzyme-linked immunosorbent assay (ELISA) (Alexon-Trend, BioCheck). The assay system utilizes polyclonal sheep anti-hGH for solid phase (microwells) immobilization, and mouse monoclonal anti-hGH in the antibody-enzyme (horseradish peroxidase) conjugate solution. […] After a 45-minute incubation at room temperature, the sample well was washed to remove unbound enzyme labeled antibody. […] The intensity of the yellow color is directly proportional to the concentration of hGH in the sample.
# in vivo [4] = details: Sprague-Dawley, rat, sc, 0.4 mg/kg
# Description: Sprague-Dawley rats (approximately weighing 120 grams each) were catheterized surgically with jugular and duodenal catheters. Each group of rats, 3-5 animals per group, were given 0.4-2.4 mg/kg of LHRH either as free in solution or incorporated in micelles. As further control, several groups of animals were given a solution of free LHRH subcutaneously at a dose of 0.4 mg/kg of body weight. Blood samples were collected at 0, 20, 40, 60, 90, 120, and 240 minutes following administration of LHRH or controls. The time 0 blood collection was obtained approximately 15 minutes before administration of LHRH formulations. Plasma samples were analyzed by a competitive ELISA assay as follows. Plastic 96 well plates were coated with anti-rabbit immunoglobulins followed by addition of rabbit anti-LHRH and biotinylated-LHRH with sample dilutions. Binding of biotinylated LHRH was assayed by development with BRP-avidin and color development with TMB (tetra-methyl-benzidine). Pharmacokinetic parameters were calculated from the data using WinNonLin software (Pharsight).
compound,measurement,setting,value
"CCNC(=O)[C@@H]1CCCN1C(=O)[C@H](CCCNC(=N)N)NC(=O)[C@H](CC(C)C)NC(=O)[C@@H](CC(C)C)NC(=O)[C@H](Cc1ccc(O)cc1)NC(=O)[C@H](CO)NC(=O)[C@H](Cc1c[nH]c2ccccc12)NC(=O)[C@H](Cc1c[nH]cn1)NC(=O)[C@@H]1CCC(=O)N1 [Leuprolide solution, p-Glu-His-Trp-Ser-Tyr-D-Leu-Leu-Arg-Pro-NHC2H5]",bioavailability,in vivo [1],~0.2%
same,AUC(0-inf),in vivo [1]; 2.4 mg/kg,5.43 ng·h/mL
same,Cmax,in vivo [1]; 2.4 mg/kg,6.3 ± 5.3 ng/mL
same,bioavailability,in vivo [1]; 2.4 mg/kg,0.23 ± 0.12%
same,AUC(0-inf),"in vivo [1]; sc, 0.4 mg/kg",397 ng·h/mL
same,Cmax,"in vivo [1]; sc, 0.4 mg/kg",453 ± 94 ng/mL
same,bioavailability,"in vivo [1]; sc, 0.4 mg/kg",100%
same,AUC(0-inf),in vivo [2],905 ng·h/mL
same,Cmax,in vivo [2],412 ± 163 ng/mL
same,bioavailability,in vivo [2],100%
"aqueous growth hormone: purified human growth hormone dissolved in water, control formulation",absorption of hGH,[3],little to no absorption
CC(C)C[C@H](NC(=O)CNC(=O)[C@H](Cc1ccc(O)cc1)NC(=O)[C@H](CO)NC(=O)[C@H](Cc1c[nH]c2ccccc12)NC(=O)[C@H](Cc1cnc[nH]1)NC(=O)[C@@H]1CCC(=O)N1)C(=O)N[C@@H](CCCNC(=N)N)C(=O)N1CCC[C@H]1C(=O)NCC(N)=O [LHRH solution],AUC(0-inf),in vivo [4],31.5 ng·h/mL
same,Cmax,in vivo [4],79 ± 51.2 ng/mL
same,bioavailability,in vivo [4],100%
